Experimental data as given in paper PMC7531004, “Discovery of gramicidin A analogues with altered activities by multidimensional screening of a one-bead-one-compound library” (Nature Communications, 2020).
Where a SMILES comes first, the peptide text is derived from it. [ ]: non-standard residue; d: D form. The star is where a group is joined. NHCH2CH2OH = OCCN*; For = O=C*

How the values were obtained:
[1] = H+/Na+ transport assay of bead-derived peptides (one-point); type: biochemical; parameters: key: relative activity; mean of two control wells = 1.00; conditions: bead-derived peptide solution, EYPC/EYPG LUVs;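 note: relative to parent gramicidin A activity set to 1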
How it was run: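 Miniaturized 96-well format. LUVs with entrapped pyranine (1.0 mM) were exposed to peptide for 30 min at RT. Intensities were expressed relative to full lysis by Triton X-100 and no treatment, with control-well mean = 1.00.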

[2] = cell viability/%
How it was run: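 Peptide stocks diluted 250× in growth medium; P388 cells 1 × 10^4 cells/mL final; 37 °C, 5% CO2, 92 h. WST-1 + 1-methoxy PMS, 4 h, A415. Output: % viability.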

[3] = test system: Streptococcus pyogenes SSI-9; experiment: Antibacterial activity assay of bead-derived peptides (three concentrations); type: cell-based; parameters: key: +++: inhibition by the 640-fold diluted peptide solution; ++: inhibition by the 160-fold diluted solution; +: inhibition by the 40-fold diluted solution; -: no inhibition; conditions: S. pyogenes, bead-derived peptide solution, three concentrations
How it was run: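 First, each peptide stock was diluted 4- and 16-fold in DMSO; next, the three solutions were mixed with S. pyogenes SSI-9 suspension (2 × 10^5 CFU) in cation-adjusted Mueller Hinton Broth plus 5% laked horse blood; finally, plates stood 18 h at 37 °C before checking for grown-cell precipitation.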

Compound	H+/Na+ transport activity normalized against the value of 1 (1.00) [1]	viability [2] [%]	antibacterial activity [3]
CC(C)C[C@@H](NC(=O)[C@H](C)NC(=O)CNC(=O)[C@@H](NC=O)C(C)C)C(=O)N[C@@H](C)C(=O)N[C@H](CC(C)C)C(=O)N[C@H](C(=O)N[C@@H](C(=O)N[C@@H](Cc1c[nH]c2ccccc12)C(=O)N[C@@H](C(=O)N[C@@H](Cc1c[nH]c2ccccc12)C(=O)N[C@@H](C(=O)N[C@@H](Cc1c[nH]c2ccccc12)C(=O)N[C@@H](C(=O)N[C@@H](Cc1c[nH]c2ccccc12)C(=O)NCCO)[C@H](C)O)C(C)C)C(C)C)C(C)C)C(C)C [compound 2793] (For-VGA[dL]A[dL]V[dV]W[dV]W[dV]W[dT]W-NHCH2CH2OH)	1.08	84.6	-
CC(C)C[C@@H](NC(=O)[C@H](C)NC(=O)CNC(=O)[C@@H](NC=O)C(C)C)C(=O)N[C@@H](C)C(=O)N[C@H](CC(C)C)C(=O)N[C@H](C(=O)N[C@H](CC(C)C)C(=O)N[C@@H](Cc1c[nH]c2ccccc12)C(=O)N[C@@H](C(=O)N[C@@H](Cc1c[nH]c2ccccc12)C(=O)N[C@H](CC(C)C)C(=O)N[C@@H](Cc1c[nH]c2ccccc12)C(=O)N[C@H](CC(C)C)C(=O)N[C@@H](Cc1c[nH]c2ccccc12)C(=O)NCCO)C(C)C)C(C)C [compound 2828] (For-VGA[dL]A[dL]V[dL]W[dV]W[dL]W[dL]W-NHCH2CH2OH)	1.15	2.8	-
CC(C)C[C@@H](NC(=O)[C@H](Cc1c[nH]c2ccccc12)NC(=O)[C@H](NC(=O)[C@H](Cc1c[nH]c2ccccc12)NC(=O)[C@@H](CC(C)C)NC(=O)[C@H](Cc1c[nH]c2ccccc12)NC(=O)[C@H](NC(=O)[C@@H](NC(=O)[C@H](NC(=O)[C@H](C)NC(=O)[C@H](NC(=O)[C@H](C)NC(=O)CNC(=O)[C@@H](NC=O)C(C)C)C(C)C)C(C)C)C(C)C)[C@H](C)O)C(C)C)C(=O)N[C@@H](Cc1c[nH]c2ccccc12)C(=O)NCCO [compound 2829] (For-VGA[dV]A[dV]V[dT]W[dL]W[dV]W[dL]W-NHCH2CH2OH)	1.13	100	-
CC(C)C[C@@H](NC(=O)[C@H](C)NC(=O)[C@H](NC(=O)[C@H](C)NC(=O)CNC(=O)[C@@H](NC=O)C(C)C)C(C)C)C(=O)N[C@H](C(=O)N[C@H](CC(C)C)C(=O)N[C@@H](Cc1c[nH]c2ccccc12)C(=O)N[C@@H](C(=O)N[C@@H](Cc1c[nH]c2ccccc12)C(=O)N[C@H](CC(C)C)C(=O)N[C@@H](Cc1c[nH]c2ccccc12)C(=O)N[C@@H](C(=O)N[C@@H](Cc1c[nH]c2ccccc12)C(=O)NCCO)[C@H](C)O)C(C)C)C(C)C [compound 2895] (For-VGA[dV]A[dL]V[dL]W[dV]W[dL]W[dT]W-NHCH2CH2OH)	1.06	95.1	-
CC(C)C[C@@H](NC(=O)[C@H](C)NC(=O)CNC(=O)[C@@H](NC=O)C(C)C)C(=O)N[C@@H](C)C(=O)N[C@H](CC(C)C)C(=O)N[C@H](C(=O)N[C@H](CC(C)C)C(=O)N[C@@H](Cc1c[nH]c2ccccc12)C(=O)N[C@H](CC(C)C)C(=O)N[C@@H](Cc1c[nH]c2ccccc12)C(=O)N[C@H](CC(C)C)C(=O)N[C@@H](Cc1c[nH]c2ccccc12)C(=O)N[C@H](CC(C)C)C(=O)N[C@@H](Cc1c[nH]c2ccccc12)C(=O)NCCO)C(C)C [compound 2904] (For-VGA[dL]A[dL]V[dL]W[dL]W[dL]W[dL]W-NHCH2CH2OH)	1.09	12.5	-
